From patent publication US6660742B2, “Compositions and methods of the use thereof achiral analogues of CC-1065 and the duocarmycins” (priority 2000, dated 2003)
Where two headings read alike, the source gives them in different places.

What was measured:
[1] = system: NCI-H460; assay: NCI screen, NCI-H460 (Non-Small Cell Lung Cancer); type: cell-based, human
Procedure: (§1) The compounds of this invention were also tested against the panel of 60 human cancer cell lines at the National Cancer Institute, Bethesda, Md. […] The cytrotoxicity studies were conducted using a 48 hour exposure, and measuring the optical density of sulforhodamide B-derived color.

[2] = system: T-47D; assay: NCI screen, T-47D (Breast Cancer); type: cell-based, human
Procedure: as §1

[3] = system: A549/ATCC; assay: cells; conditions: Homo sapiens, A549, 48 h
[4] = system: human colon adenocarcinoma cell line, LS 174T; assay: SRB cytotoxicity on LS174T cells; type: cell-based
Procedure: (§2) Cells were seeded in 96-well microtiter plates at densities of 1000 cells/well. The optimal seeding density was determined to ensure exponential growth in control wells throughout the experimental period and to obtain a linear relationship between absorbance at 492 nm and cell number when analyzed by the sulforhodamine B (SRB) assay (43). 24 hours after seeding the cells were incubated for 1 hour or continuously for 3 days with the drugs (concentration range 0.01 to 500 μM). The cells were washed once and then incubated in drug free medium for 6 days. At the end of the incubation cell growth was determined by the SRB assay, which quantifies viable cells by measuring their total cellular protein content. […] Similar studies were conducted against the growth of PC3 (human prostate cancer cells) and MCF-7 (human breast cancer cells).

[5] = system: MCF-7 (human breast cancer cells); assay: SRB cytotoxicity on MCF-7 cells; type: cell-based
Procedure: as §2

[6] = system: P815 mastocytoma cells; assay: MTT cytotoxicity on P815 cells; type: cell-based, murine; conditions: 72 hr incubation
Procedure: The P815 and L1210 cell lines were obtained from American Type Tissue Culture Collection (ATCC). The cell lines were grown in Delbecco's Modified Eagle Medium (DMEM, Atlanta Biologicals) supplemented with 10% fetal bovine serum, Hepes Buffer (2 mM, Mediatech Cellgro, 25-060-Cl), L-Glutamine (2 mM, Mediatech Cellgro), and penicillin/streptomycin (50,000 units penicillin, 50,000 […], Atlanta Biologicals). Cells were maintained at 37° C. in a 5% humidified CO2 atmosphere. Cultured cells were counted using a hemocytometer and resuspended in fresh DMEM at a concentration of 8×10^5 cells/mL. This cell suspension (100 μL) was added to 96 well flat -bottom cell culture plates. At this concentration, 80,000 cells were seeded in each well. Drug solutions (dissolved in DMSO and diluted in DMEM) were added to each well (5 μL/well) resulting in final concentrations ranging from 1×10^−4 to 1×10^−12 M. Quadruplicate wells were prepared for each drug concentration. The plates were incubated for 72 hr at 37° C. in a 5% CO2 atmosphere. MTT (3-(4,5-dimethylthiazol-2-yl)-2,5-diphenyl tetrazolium bromide) was dissolved in PBS (5 mg/ml). After the indicated cell incubation period, 10 μL of this stock MTT solution was added to each well and the plates were further incubated for 4 h at 37° C. in a 5% CO2 atmosphere. […] The contents of the well were mixed thoroughly by pipetting the cell suspension up and down and the plates were allowed to sit at room temperature for 15 min in order to allow for full development of the purple color. The plates were read on a Dynatech Plate Reader, utilizing Dynex Revelation 3.2 software, with a test wavelenth of 570 nm and a reference wavelength of 630 nm.

[7] = system: supercoil pBR322 DNA; assay: pBR322 strand nicking assay; type: biochemical
Description: When a compound is covalently bound to a purine-N3 in the minor groove of DNA, the adduct is thermally unstable. It is readily hydrolyzed to produce a DNA strand (2). Consequently, the formation of adenine-N3 (or guanine-N3) alkylation adducts can be detected by thermal conversion of supercoil pBR322 DNA (Form I) to nicked open […] DNA (Form II) as a result of the formation of single strand breaks. These two different forms of pBR322 DNA can then be separated by agarose gel electrophoresis, and the relative amounts of each form can be determined by densitometry of methylene blue stained gels (39). The supercoil form of pBR322 DNA is more compact than the open circular form, and as a result, moves further down the gel towards the positive electrode.
Solutions of the drugs dissolved in N,N-dimethylacetamide (DMA) were made at 0.10 mM concentrations, and were always stored in the refrigerator.
Tris buffer solution at pH 7.4 at 25° C. and 0.010 M was made from Tris HCl (0.661 g), Tris base (0.097 g) diluted to a 100 mL volume with distilled water. Then EDTA-Na2—2H2O (0.186 g) and KCl (3.72 g) were added to the Tris HCl solution and diluted to 500 mL volume with distilled water. A TBE solution was prepared from Carolina Lot #4020602 Electrophoresis buffer 20 times TBE diluted to a volume of three liters with deionized water. The agarose gel was prepared from agarose low EEO (0.32 g) dissolved in TBE buffer (40 mL) and heated in a microwave oven until dissolved.
The pBR322 DNA (100 μg/100 μL) from Pharmacia Biotech was in a buffer (10 mM Tris-HCl pH 7.5, and 1 mM EDTA). The DNA was prepared from plasmid DNA isolated from E. coli HB101 by the alkaline lysate procedure and was purified by Sepharcryl S-100 chromatography followed by CsCl-ethidium bromide centrifugation.
The alkylation samples were prepared by adding DNA (10 μL), Tris-EDTA KCl buffer (18 μL), and compound (2 μL) at 100 μM concentration to Eppendorf tubes. The samples were incubated at 40° C. for 40 h. The samples were removed then centrifuged for one minute. 10% SDS (sodium dodecylsulfate) (2 μL), 50% glycerol (5 μL), and bromophenol blue (2 μL) were added to the samples. The contents of the tubes were mixed with a Vortex mixer then centrifuged to consolidate the samples. The agarose gel was covered with TBE-buffer in the chamber. The samples were loaded onto the agarose gel and run at 40 V for three hours, or when the band were about three/fourths of the way down the gel.
The gel was removed and stained with methylene blue (45 min). At this time, the stained gel was placed in a water chamber overnight. The intensities of each band i.e. Form I and II were determined using densitometry.

[8] = system: human H522 lung cancer; conditions: hollow fiber
[9] = system: CCRF-CEM
Procedure: as §1

[10] = system: K-562
Procedure: as §1

[11] = system: U251
Procedure: as §1

[12] = system: SK-MEL-28
Procedure: as §1

[13] = system: OVCAR-5
Procedure: as §1

## COC(=O)c1[nH]c2c(O)cc(NC(=O)c3cc4cc(OC)c(OC)c(OC)c4[nH]3)c(CCCl)c2c1C(=O)OC [Compound 22, Dimethyl 4-(2-chloroethyl)-7-hydroxy-5-(5,6,7-trimethoxyindole-2-carboxamido)indole-2,3-dicarboxylate]
[1]; 48 hour exposure
  TGI: 5.64E−06 Molar
[1]; Log10 Concentration −4.3, 48 hour exposure
  Percent Growth: −69%
[1]; Log10 Concentration −5.3, 48 hour exposure
  Percent Growth: 4%
[1]; Log10 Concentration −6.3, 48 hour exposure
  Percent Growth: 8%
[1]; Log10 Concentration −7.3, 48 hour exposure
  Percent Growth: 73%
[1]; Log10 Concentration −8.3, 48 hour exposure
  Percent Growth: 84%
[2]; Homo sapiens, T47D, 48 h, read-out: LC50
  CC50: > 50 µM
[2]; Homo sapiens, T47D, T-47D, 48 hour exposure
  GI50: 171 nM
[2]; T-47D, 48 hour exposure
  TGI: >5.00E−05 Molar
[2]; T-47D, Log10 Concentration −4.3, 48 hour exposure
  Percent Growth: 14%
[2]; T-47D, Log10 Concentration −5.3, 48 hour exposure
  Percent Growth: 33%
[2]; T-47D, Log10 Concentration −6.3, 48 hour exposure
  Percent Growth: 29%
[2]; T-47D, Log10 Concentration −7.3, 48 hour exposure
  Percent Growth: 74%
[2]; T-47D, Log10 Concentration −8.3, 48 hour exposure
  Percent Growth: 100%
[3]
  GI50: 135 nM
[3]; read-out: LC50
  CC50: > 50 µM

## O=C(Nc1cc(O)ccc1CCCl)c1cc2cc(NC(=O)c3cc4ccccc4o3)ccc2[nH]1 [Compound 1, 4-(2-Chloroethyl)-3-[5-(5-benzofuran-2-carboxamido)indole-2-carboxamido]phenol]
[4]; continuous exposure, read-out: IC50 LS174T Continuous exposure
  IC50: 2.27 µM
[4]; read-out: IC50 LS174T 1 hour exposure, 1 hour exposure
  IC50: 18 µM
[5]; continuous exposure, read-out: IC50 MCF-7 Continuous exposure
  IC50: 3.43 µM
[5]; read-out: IC50 MCF-7 1 hour exposure, 1 hour exposure
  IC50: > 50 µM
[6]
  IC50: 43 µM
[7]
  Form I DNA (%): 73 ± 2%
  Form II DNA (%): 27 ± 4%
[8]
  IP+SC score: 18
  cell kill: significant cells kill was observed
[8]; intraperitoneal fibers
  IP score: 8
[8]; subcutaneous fibers
  SC score: 10
[9]
  CC50: > 100 µM
[10]
  CC50: > 100 µM
[11]
  CC50: 53.9 µM
[12]
  CC50: 21.4 µM
[13]
  CC50: 20 µM
  Percent Growth: −29%
[13]; OVCAR-5
  GI50: 2280 nM
  TGI: 5.80E−06 Molar
[13]; OVCAR-5, Log10 Concentration −4.0
  Percent Growth: −99%
[13]; OVCAR-5, Log10 Concentration −6.0
  Percent Growth: 94%
[13]; OVCAR-5, Log10 Concentration −7.0
  Percent Growth: 95%
[13]; OVCAR-5, Log10 Concentration −8.0
  Percent Growth: 94%
